Results taken from patent US10662229B2, “Spider venom peptides and methods of use for modulating sodium channels” (priority 2016, dated 2020).
pIC50: −log10 of the molar value. Where a SMILES comes first, the peptide text is derived from it. Bridges are numbered along the chain shown (N, C = ends).

How the values were obtained:
Format in all cases: cell-based
hNav1.1 = molecular target: T1, hNav1.1 (Homo sapiens, UniProt P35498); experiment: FLIPR membrane potential assay, hNav1.1; conditions: for Selectivity for Nav1.7, Nav subtype 1.1: membrane potential assay
T1 construct: host or cells: HEK293
Description: (§1) HEK293 cells stably expressing hNav1.1, hNav1.2, hNav1.3, hNav1.4, hNav1.5, hNav1.6, hNav1.7 and […] (SB Drug Discovery, Glasgow, UK) were cultured in minimum essential media (MEM) containing 10% v/v FBS supplemented with L-glutamine (2 mM) and selection antibiotics G-418 (0.5 mg/mL), blasticidin (2-4 μg/mL) and zeocin (0.5 mg/mL) as recommended by the manufacturer. CHO cells stably expressing hNav1.8 in a tetracycline-inducible system (Chantest, OH, USA) were cultured in Ham's F-12 containing 10% v/v FBS and selection antibiotics as recommended by the manufacturer. To induce hNav1.8 expression, cells were cultured in the presence of tetracycline (1 μg/mL) for 24 h at 27° C. Cells were grown in a humidified 5% CO2 incubator at 37° C., grown to 70-80% confluence, and passaged every 3-4 days using TrypLE Express (Invitrogen).
(§2) Cells were plated 48 h before the assay on 384-well black walled imaging plates at a density of 10,000 to 15,000 cells per well and were loaded with red membrane potential dye for 30 min at 37° C. (Molecular Devices, CA, USA). One vial of bulk red membrane potential dye was reconstituted to a 10× stock solution with PSS and stored at −20° C. and diluted to 1× solution with PSS on the day of the assay. […] Changes in membrane potential were assessed using the FLIPR^TETRA (excitation 515 to 545 nm, emission 565 to 625 nm) every second for 300 s after adding agonists.

hNav1.4 = molecular target: T2, hNav1.4 (Homo sapiens, UniProt P35499); experiment: FLIPR membrane potential assay, hNav1.4; conditions: for Selectivity for Nav1.7, Nav subtype 1.4: membrane potential assay
T2 construct: host or cells: HEK293
Description: as §1, §2

hNav1.2 = molecular target: T3, hNav1.2 (Homo sapiens, UniProt Q99250); experiment: FLIPR membrane potential assay, hNav1.2; conditions: for Selectivity for Nav1.7, Nav subtype 1.2: membrane potential assay
T3 construct: host or cells: HEK293
Description: as §1, §2

hNav1.8 = molecular target: T4, hNav1.8 (Homo sapiens, UniProt Q9Y5Y9); experiment: FLIPR membrane potential assay, hNav1.8; conditions: for Selectivity for Nav1.7, Nav subtype 1.8: membrane potential assay
T4 construct: host or cells: HEK293
Description: as §1, §2

hNav1.5 = molecular target: T5, hNav1.5 (Homo sapiens, UniProt Q14524); experiment: FLIPR membrane potential assay, hNav1.5; conditions: for Selectivity for Nav1.7, Nav subtype 1.5: membrane potential assay
T5 construct: host or cells: HEK293
Description: as §1, §2

hNav1.3 = molecular target: T6, hNav1.3 (Homo sapiens, UniProt Q9NY46); experiment: FLIPR membrane potential assay, hNav1.3; conditions: for Selectivity for Nav1.7, Nav subtype 1.3: membrane potential assay
T6 construct: host or cells: HEK293
Description: as §1, §2

hNav1.6 = molecular target: T7, hNav1.6 (Homo sapiens, UniProt Q9UQD0); experiment: FLIPR membrane potential assay, hNav1.6; conditions: for Selectivity for Nav1.7, Nav subtype 1.6: membrane potential assay
T7 construct: host or cells: HEK293
Description: as §1, §2

hNav1.7 = molecular target: T8, hNav1.7 (Homo sapiens, UniProt Q15858); experiment: FLIPR membrane potential assay, hNav1.7; conditions: for Selectivity for Nav1.7, Nav subtype 1.7: membrane potential assay, reference subtype
T8 construct: host or cells: HEK293
Description: as §1, §2

T8 sequence (Q15858 whole entry): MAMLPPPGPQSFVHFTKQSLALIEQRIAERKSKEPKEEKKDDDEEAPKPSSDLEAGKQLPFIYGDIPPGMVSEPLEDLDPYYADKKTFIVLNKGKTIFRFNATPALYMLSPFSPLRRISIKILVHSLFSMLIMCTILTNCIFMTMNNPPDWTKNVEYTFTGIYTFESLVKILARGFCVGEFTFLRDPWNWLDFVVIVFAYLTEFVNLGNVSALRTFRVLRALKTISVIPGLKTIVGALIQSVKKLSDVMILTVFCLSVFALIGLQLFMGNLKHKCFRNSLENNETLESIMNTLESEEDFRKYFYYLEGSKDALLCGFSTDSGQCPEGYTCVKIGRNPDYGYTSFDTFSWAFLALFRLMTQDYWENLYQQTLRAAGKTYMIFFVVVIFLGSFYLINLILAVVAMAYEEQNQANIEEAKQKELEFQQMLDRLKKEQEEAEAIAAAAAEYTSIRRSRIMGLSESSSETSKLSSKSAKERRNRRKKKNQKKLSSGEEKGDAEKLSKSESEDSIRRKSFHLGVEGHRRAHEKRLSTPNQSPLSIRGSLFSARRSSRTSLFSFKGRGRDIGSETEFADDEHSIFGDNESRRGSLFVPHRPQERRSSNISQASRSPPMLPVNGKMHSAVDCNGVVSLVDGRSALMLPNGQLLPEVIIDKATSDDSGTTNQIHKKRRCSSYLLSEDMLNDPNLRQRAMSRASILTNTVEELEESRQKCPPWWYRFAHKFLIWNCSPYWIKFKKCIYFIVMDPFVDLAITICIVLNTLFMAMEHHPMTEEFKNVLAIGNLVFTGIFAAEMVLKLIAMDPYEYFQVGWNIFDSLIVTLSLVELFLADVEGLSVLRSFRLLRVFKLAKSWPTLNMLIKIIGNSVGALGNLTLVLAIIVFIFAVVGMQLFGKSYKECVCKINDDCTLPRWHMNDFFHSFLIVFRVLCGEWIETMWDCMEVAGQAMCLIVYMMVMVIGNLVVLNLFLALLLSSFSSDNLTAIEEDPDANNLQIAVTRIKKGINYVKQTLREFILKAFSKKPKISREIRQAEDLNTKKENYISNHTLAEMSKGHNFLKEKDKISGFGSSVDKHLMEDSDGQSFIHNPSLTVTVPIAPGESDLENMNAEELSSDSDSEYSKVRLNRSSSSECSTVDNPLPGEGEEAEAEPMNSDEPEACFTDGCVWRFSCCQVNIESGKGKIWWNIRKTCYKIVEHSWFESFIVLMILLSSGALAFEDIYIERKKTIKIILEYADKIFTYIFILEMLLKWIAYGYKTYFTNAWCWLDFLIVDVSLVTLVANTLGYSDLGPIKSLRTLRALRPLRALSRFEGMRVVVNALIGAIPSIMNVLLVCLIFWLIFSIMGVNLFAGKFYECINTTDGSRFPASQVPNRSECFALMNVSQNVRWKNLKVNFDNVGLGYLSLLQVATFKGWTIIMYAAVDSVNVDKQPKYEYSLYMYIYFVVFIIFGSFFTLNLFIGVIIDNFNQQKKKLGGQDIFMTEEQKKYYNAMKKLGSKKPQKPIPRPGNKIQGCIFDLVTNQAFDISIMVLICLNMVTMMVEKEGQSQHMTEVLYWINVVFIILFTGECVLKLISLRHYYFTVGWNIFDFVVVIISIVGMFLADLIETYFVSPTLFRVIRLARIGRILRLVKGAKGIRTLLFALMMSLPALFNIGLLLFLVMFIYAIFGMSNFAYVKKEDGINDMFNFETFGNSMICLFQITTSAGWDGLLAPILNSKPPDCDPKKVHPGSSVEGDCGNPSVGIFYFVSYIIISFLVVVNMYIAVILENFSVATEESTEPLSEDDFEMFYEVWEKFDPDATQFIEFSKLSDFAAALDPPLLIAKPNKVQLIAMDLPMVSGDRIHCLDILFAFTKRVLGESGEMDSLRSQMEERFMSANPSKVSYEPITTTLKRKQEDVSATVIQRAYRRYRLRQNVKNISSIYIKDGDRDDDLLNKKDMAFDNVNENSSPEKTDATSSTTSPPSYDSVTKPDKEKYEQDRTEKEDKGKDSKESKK
T2 sequence (P35499 whole entry): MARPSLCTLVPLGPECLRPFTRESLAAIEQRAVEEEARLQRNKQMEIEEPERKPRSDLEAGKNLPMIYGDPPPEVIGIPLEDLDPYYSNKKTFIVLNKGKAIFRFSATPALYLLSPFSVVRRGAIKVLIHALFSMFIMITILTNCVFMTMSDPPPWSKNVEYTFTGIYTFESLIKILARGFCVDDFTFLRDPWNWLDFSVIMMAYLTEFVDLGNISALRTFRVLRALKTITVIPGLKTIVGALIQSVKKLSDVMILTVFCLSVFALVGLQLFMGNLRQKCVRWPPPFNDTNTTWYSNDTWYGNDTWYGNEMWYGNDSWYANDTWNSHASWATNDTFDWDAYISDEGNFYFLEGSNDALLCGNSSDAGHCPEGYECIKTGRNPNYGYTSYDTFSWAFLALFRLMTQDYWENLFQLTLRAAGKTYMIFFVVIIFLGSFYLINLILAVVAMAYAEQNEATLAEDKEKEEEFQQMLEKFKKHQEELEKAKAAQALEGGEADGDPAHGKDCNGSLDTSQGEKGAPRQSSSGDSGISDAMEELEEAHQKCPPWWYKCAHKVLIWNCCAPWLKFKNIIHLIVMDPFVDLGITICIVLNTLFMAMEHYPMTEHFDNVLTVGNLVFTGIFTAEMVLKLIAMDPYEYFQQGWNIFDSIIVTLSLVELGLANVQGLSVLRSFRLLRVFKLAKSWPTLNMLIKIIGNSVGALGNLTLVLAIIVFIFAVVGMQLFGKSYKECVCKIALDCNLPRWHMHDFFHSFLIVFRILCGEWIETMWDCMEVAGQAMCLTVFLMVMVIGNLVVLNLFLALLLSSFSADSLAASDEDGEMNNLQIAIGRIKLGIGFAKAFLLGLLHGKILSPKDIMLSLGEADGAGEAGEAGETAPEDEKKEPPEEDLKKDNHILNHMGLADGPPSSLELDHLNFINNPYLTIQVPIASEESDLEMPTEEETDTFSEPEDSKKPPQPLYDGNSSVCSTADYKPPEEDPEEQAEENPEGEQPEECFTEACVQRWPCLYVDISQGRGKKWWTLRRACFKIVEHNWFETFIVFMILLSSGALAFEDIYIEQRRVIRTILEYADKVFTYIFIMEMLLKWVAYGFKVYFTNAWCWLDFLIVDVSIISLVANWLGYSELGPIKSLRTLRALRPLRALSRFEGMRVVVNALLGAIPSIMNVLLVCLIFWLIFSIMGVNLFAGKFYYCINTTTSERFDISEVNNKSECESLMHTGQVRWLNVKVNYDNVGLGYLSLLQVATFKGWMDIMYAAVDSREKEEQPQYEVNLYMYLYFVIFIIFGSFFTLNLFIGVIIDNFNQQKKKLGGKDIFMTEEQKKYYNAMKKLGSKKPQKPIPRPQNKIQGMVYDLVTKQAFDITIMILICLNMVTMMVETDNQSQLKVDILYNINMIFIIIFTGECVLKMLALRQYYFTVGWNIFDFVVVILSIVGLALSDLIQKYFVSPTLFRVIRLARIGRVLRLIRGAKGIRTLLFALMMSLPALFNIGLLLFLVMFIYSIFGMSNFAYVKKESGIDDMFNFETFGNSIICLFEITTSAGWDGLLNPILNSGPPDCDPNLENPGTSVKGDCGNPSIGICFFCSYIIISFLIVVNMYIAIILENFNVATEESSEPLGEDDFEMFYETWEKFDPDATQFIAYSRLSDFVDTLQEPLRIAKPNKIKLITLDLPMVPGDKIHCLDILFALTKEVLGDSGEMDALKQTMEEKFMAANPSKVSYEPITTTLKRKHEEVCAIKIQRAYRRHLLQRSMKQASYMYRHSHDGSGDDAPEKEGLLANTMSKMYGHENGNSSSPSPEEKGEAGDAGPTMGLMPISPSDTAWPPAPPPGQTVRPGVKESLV

SMILES	pIC50 (hNav1.1)	pIC50 (hNav1.4)	pIC50 (hNav1.2)	pIC50 (hNav1.8)	pIC50 (hNav1.5)	pIC50 (hNav1.3)	pIC50 (hNav1.6)	Selectivity for Nav1.7, Nav subtype 1.1 (hNav1.1)	Selectivity for Nav1.7, Nav subtype 1.4 (hNav1.4)	Selectivity for Nav1.7, Nav subtype 1.2 (hNav1.2)	Selectivity for Nav1.7, Nav subtype 1.8 (hNav1.8)	pIC50 (hNav1.7)	Selectivity for Nav1.7, Nav subtype 1.7 (hNav1.7)	Selectivity for Nav1.7, Nav subtype 1.5 (hNav1.5)	Selectivity for Nav1.7, Nav subtype 1.3 (hNav1.3)	Selectivity for Nav1.7, Nav subtype 1.6 (hNav1.6)
CSCC[C@@H]1NC(=O)[C@H](Cc2ccc(O)cc2)NC(=O)[C@H](CCCNC(=N)N)NC(=O)[C@@H](NC(=O)[C@H](CC(=O)O)NC(C)=O)CSSC[C@@H]2NC(=O)[C@@H]3CSSC[C@@H](C(=O)N[C@@H](C)C(=O)N[C@@H](Cc4c[nH]c5ccccc45)C(=O)N[C@@H](CC(=O)O)C(=O)N[C@@H](Cc4ccccc4)C(=O)N[C@H](C(=O)N[C@@H](Cc4ccccc4)C(=O)N[C@H](C(=O)O)[C@@H](C)O)[C@@H](C)O)NC(=O)[C@H](Cc4ccc(O)cc4)NC(=O)[C@H](CCCCN)NC(=O)[C@H](CCSC)NC(=O)[C@H](CCCCN)NC(=O)[C@H](CCCNC(=N)N)NC(=O)[C@H](CCCCN)NC(=O)[C@H](CSSC[C@H](NC(=O)[C@H](CC(=O)O)NC(=O)CNC(=O)[C@H](Cc4ccccc4)NC1=O)C(=O)N[C@@H](CCC(=O)O)C(=O)N[C@@H](CCCCN)C(=O)N[C@@H](CC(=O)O)C(=O)N[C@@H](CCC(=O)O)C(=O)N[C@@H](CC(=O)O)C(=O)N3)NC(=O)CNC(=O)[C@H](CC(C)C)NC(=O)[C@H](Cc1c[nH]cn1)NC(=O)[C@H](CCCCN)NC2=O [Ac-Pnc1a]	4.64	4.85	5.30	< 4.52	< 4.52	5.10	4.80									
CSCC[C@@H]1NC(=O)[C@H](Cc2ccc(O)cc2)NC(=O)[C@H](CCCNC(=N)N)NC(=O)[C@@H](NC(=O)[C@@H](N)CC(=O)O)CSSC[C@@H]2NC(=O)[C@@H]3CSSC[C@@H](C(=O)N[C@@H](C)C(=O)N[C@@H](Cc4c[nH]c5ccccc45)C(=O)N[C@@H](CC(=O)O)C(=O)N[C@@H](Cc4ccccc4)C(=O)N[C@H](C(=O)N[C@@H](Cc4ccccc4)C(=O)N[C@H](C(N)=O)[C@@H](C)O)[C@@H](C)O)NC(=O)[C@H](Cc4ccc(O)cc4)NC(=O)[C@H](CCCCN)NC(=O)[C@H](CCSC)NC(=O)[C@H](CCCCN)NC(=O)[C@H](CCCNC(=N)N)NC(=O)[C@H](CCCCN)NC(=O)[C@H](CSSC[C@H](NC(=O)[C@H](CC(=O)O)NC(=O)CNC(=O)[C@H](Cc4ccccc4)NC1=O)C(=O)N[C@@H](CCC(=O)O)C(=O)N[C@@H](CCCCN)C(=O)N[C@@H](CC(=O)O)C(=O)N[C@@H](CCC(=O)O)C(=O)N[C@@H](CC(=O)O)C(=O)N3)NC(=O)CNC(=O)[C@H](CC(C)C)NC(=O)[C@H](Cc1c[nH]cn1)NC(=O)[C@H](CCCCN)NC2=O [Pnc1a-CONH2]	5.10	4.80	5.52	< 4.52	< 4.52	5.15	4.70									
CSCC[C@@H]1NC(=O)[C@H](Cc2ccc(O)cc2)NC(=O)[C@H](CCCNC(=N)N)NC(=O)[C@@H](NC(=O)[C@H](CC(=O)O)NC(=O)[C@@H](N)CO)CSSC[C@@H]2NC(=O)[C@@H]3CSSC[C@@H](C(=O)N[C@@H](C)C(=O)N[C@@H](Cc4c[nH]c5ccccc45)C(=O)N[C@@H](CC(=O)O)C(=O)N[C@@H](Cc4ccccc4)C(=O)N[C@H](C(=O)N[C@@H](Cc4ccccc4)C(=O)N[C@H](C(=O)O)[C@@H](C)O)[C@@H](C)O)NC(=O)[C@H](Cc4ccc(O)cc4)NC(=O)[C@H](CCCCN)NC(=O)[C@H](CCSC)NC(=O)[C@H](CCCCN)NC(=O)[C@H](CCCNC(=N)N)NC(=O)[C@H](CCCCN)NC(=O)[C@H](CSSC[C@H](NC(=O)[C@H](CC(=O)O)NC(=O)CNC(=O)[C@H](Cc4ccccc4)NC1=O)C(=O)N[C@@H](CCC(=O)O)C(=O)N[C@@H](CCCCN)C(=O)N[C@@H](CC(=O)O)C(=O)N[C@@H](CCC(=O)O)C(=O)N[C@@H](CC(=O)O)C(=O)N3)NC(=O)CNC(=O)[C@H](CC(C)C)NC(=O)[C@H](Cc1c[nH]cn1)NC(=O)[C@H](CCCCN)NC2=O [S0-Pnc1a] (H-SDCRYMFGDCEKDEDCCKHLGCKRKMKYCAWDFTFT-OH; disulfide 3-17, 10-22, 16-29)	5.05	4.96	5.52	< 4.52	< 4.52	5.22	4.72	32	40	10	>107	6.55	1	>107	22	68
CSCC[C@@H]1NC(=O)[C@H](Cc2ccc(O)cc2)NC(=O)[C@H](CCCNC(=N)N)NC(=O)[C@@H](NC(=O)[C@@H](N)CCCCN)CSSC[C@@H]2NC(=O)[C@@H]3CSSC[C@@H](C(=O)N[C@@H](C)C(=O)N[C@@H](Cc4c[nH]c5ccccc45)C(=O)N[C@@H](CC(=O)O)C(=O)N[C@@H](Cc4ccccc4)C(=O)N[C@H](C(=O)N[C@@H](Cc4ccccc4)C(=O)N[C@H](C(=O)O)[C@@H](C)O)[C@@H](C)O)NC(=O)[C@H](Cc4ccc(O)cc4)NC(=O)[C@H](CCCCN)NC(=O)[C@H](CCSC)NC(=O)[C@H](CCCCN)NC(=O)[C@H](CCCNC(=N)N)NC(=O)[C@H](CCCCN)NC(=O)[C@H](CSSC[C@H](NC(=O)[C@H](CC(=O)O)NC(=O)CNC(=O)[C@H](Cc4ccccc4)NC1=O)C(=O)N[C@@H](CCC(=O)O)C(=O)N[C@@H](CCCCN)C(=O)N[C@@H](CC(=O)O)C(=O)N[C@@H](CCC(=O)O)C(=O)N[C@@H](CC(=O)O)C(=O)N3)NC(=O)CNC(=O)[C@H](CC(C)C)NC(=O)[C@H](Cc1c[nH]cn1)NC(=O)[C@H](CCCCN)NC2=O [[D1K]Pnc1a] (H-KCRYMFGDCEKDEDCCKHLGCKRKMKYCAWDFTFT-OH; disulfide 2-16, 9-21, 15-28)	6.12	5.52	6.58	< 4.52	< 4.52	5.40	< 4.52	24	86	8	>900	7.51	1	>900	134	>900
CSCC[C@@H]1NC(=O)[C@H](Cc2ccc(O)cc2)NC(=O)[C@H](CCCNC(=N)N)NC(=O)[C@@H](NC(=O)[C@@H](N)CC(=O)O)CSSC[C@@H]2NC(=O)[C@@H]3CSSC[C@@H](C(=O)N[C@@H](C)C(=O)N[C@@H](Cc4c[nH]c5ccccc45)C(=O)N[C@@H](CC(=O)O)C(=O)N[C@@H](Cc4ccccc4)C(=O)N[C@H](C(=O)N[C@@H](Cc4ccccc4)C(=O)N[C@H](C(=O)O)[C@@H](C)O)[C@@H](C)O)NC(=O)[C@H](Cc4ccc(O)cc4)NC(=O)[C@H](CCCCN)NC(=O)[C@H](CCSC)NC(=O)[C@H](CCCCN)NC(=O)[C@H](CCCNC(=N)N)NC(=O)[C@H](CCCCN)NC(=O)[C@H](CSSC[C@H](NC(=O)[C@H](CC(=O)O)NC(=O)CNC(=O)[C@H](Cc4ccccc4)NC1=O)C(=O)N[C@@H](CCC(=O)O)C(=O)N[C@@H](CCCCN)C(=O)N[C@@H](CC(=O)O)C(=O)N[C@@H](CCCCN)C(=O)N[C@@H](CC(=O)O)C(=O)N3)NC(=O)CNC(=O)[C@H](CC(C)C)NC(=O)[C@H](Cc1c[nH]cn1)NC(=O)[C@H](CCCCN)NC2=O [[E13K]Pnc1a] (H-DCRYMFGDCEKDKDCCKHLGCKRKMKYCAWDFTFT-OH; disulfide 2-16, 9-21, 15-28)		5.70	6.42	< 4.52	< 4.52	5.22	6.00		27	4	>300		1	>300	66	14
